Assay results published in ChEMBL document CHEMBL3994622, “Design and synthesis of new RAF kinase-inhibiting antiproliferative quinoline derivatives. Part 2: Diarylurea derivatives” (Eur J Med Chem, 2017).

Legend:
CCRF-CEM = experiment: Growth inhibition of human CCRF-CEM cells incubated for 48 hrs by sulforhodamine B assay; type: functional
K562 = experiment: Growth inhibition of human K562 cells incubated for 48 hrs by sulforhodamine B assay; type: functional; conditions: K562, 48 h
MOLT-4 = experiment: Growth inhibition of human MOLT4 cells incubated for 48 hrs by sulforhodamine B assay; type: functional; conditions: MOLT-4, 48 h
RPMI-8226 = experiment: Growth inhibition of human RPMI8226 cells incubated for 48 hrs by sulforhodamine B assay; type: functional; conditions: RPMI-8226, 48 h
SR = experiment: Growth inhibition of human SR cells incubated for 48 hrs by sulforhodamine B assay; type: functional
A549 = experiment: Growth inhibition of human A549/ATCC cells incubated for 48 hrs by sulforhodamine B assay; type: functional; conditions: A549, 48 h
HOP-62 = experiment: Growth inhibition of human HOP62 cells incubated for 48 hrs by sulforhodamine B assay; type: functional; conditions: HOP-62, 48 h
HOP-92 = experiment: Growth inhibition of human HOP92 cells incubated for 48 hrs by sulforhodamine B assay; type: functional; conditions: HOP-92, 48 h
NCI-H226 = experiment: Growth inhibition of human NCI-H226 cells incubated for 48 hrs by sulforhodamine B assay; type: functional; conditions: NCI-H226, 48 h
NCI-H23 = experiment: Growth inhibition of human NCI-H23 cells incubated for 48 hrs by sulforhodamine B assay; type: functional; conditions: NCI-H23, 48 h
NCI-H322M = experiment: Growth inhibition of human NCI-H322M cells incubated for 48 hrs by sulforhodamine B assay; type: functional
NCI-H522 = experiment: Growth inhibition of human NCI-H522 cells incubated for 48 hrs by sulforhodamine B assay; type: functional; conditions: NCI-H522, 48 h
HCT-116 = experiment: Growth inhibition of human HCT116 cells incubated for 48 hrs by sulforhodamine B assay; type: functional; conditions: HCT-116, 48 h
HCT-15 = experiment: Growth inhibition of human HCT15 cells incubated for 48 hrs by sulforhodamine B assay; type: functional; conditions: HCT-15, 48 h
SF-268 = experiment: Growth inhibition of human SF268 cells incubated for 48 hrs by sulforhodamine B assay; type: functional; conditions: SF-268, 48 h
SNB-75 = experiment: Growth inhibition of human SNB75 cells incubated for 48 hrs by sulforhodamine B assay; type: functional; conditions: SNB-75, 48 h
Malme-3M = experiment: Growth inhibition of human MALME-3M cells incubated for 48 hrs by sulforhodamine B assay; type: functional
MDA-MB-435 = experiment: Growth inhibition of human MDA-MB-435 cells incubated for 48 hrs by sulforhodamine B assay; type: functional; conditions: MDA-MB-435, 48 h
SK-MEL-2 = experiment: Growth inhibition of human SK-MEL-2 cells incubated for 48 hrs by sulforhodamine B assay; type: functional; conditions: SK-MEL-2, 48 h
SK-MEL-28 = experiment: Growth inhibition of human SK-MEL-28 cells incubated for 48 hrs by sulforhodamine B assay; type: functional; conditions: SK-MEL-28, 48 h
SK-MEL-5 = experiment: Growth inhibition of human SK-MEL-5 cells incubated for 48 hrs by sulforhodamine B assay; type: functional; conditions: SK-MEL-5, 48 h
UACC-62 = experiment: Growth inhibition of human UACC62 cells incubated for 48 hrs by sulforhodamine B assay; type: functional; conditions: UACC-62, 48 h
OVCAR-5 = experiment: Growth inhibition of human OVCAR5 cells incubated for 48 hrs by sulforhodamine B assay; type: functional; conditions: OVCAR-5, 48 h
OVCAR-8 = experiment: Growth inhibition of human OVCAR8 cells incubated for 48 hrs by sulforhodamine B assay; type: functional; conditions: OVCAR-8, 48 h
NCI/ADR-RES = experiment: Growth inhibition of human NCI/ADR-RES cells incubated for 48 hrs by sulforhodamine B assay; type: functional
SK-OV-3 = experiment: Growth inhibition of human SKOV3 cells incubated for 48 hrs by sulforhodamine B assay; type: functional; conditions: SK-OV-3, 48 h
ACHN = experiment: Growth inhibition of human ACHN cells incubated for 48 hrs by sulforhodamine B assay; type: functional
RXF 393 = experiment: Growth inhibition of human RXF393 cells incubated for 48 hrs by sulforhodamine B assay; type: functional; conditions: RXF 393, 48 h
SN12C = experiment: Growth inhibition of human SN12C cells incubated for 48 hrs by sulforhodamine B assay; type: functional
MCF7 = experiment: Growth inhibition of human MCF7 cells incubated for 48 hrs by sulforhodamine B assay; type: functional; conditions: MCF7, 48 h
BT-549 = experiment: Growth inhibition of human BT549 cells incubated for 48 hrs by sulforhodamine B assay; type: functional; conditions: BT-549, 48 h
[1] = biological target: RAF proto-oncogene serine/threonine-protein kinase (Homo sapiens, UniProt P04049); experiment: Inhibition of human c-RAF at 10 uM using MEK1 as substrate in presence of [33P]ATP by Hotspot assay relative to control
Sequence of RAF proto-oncogene serine/threonine-protein kinase (P04049 whole entry): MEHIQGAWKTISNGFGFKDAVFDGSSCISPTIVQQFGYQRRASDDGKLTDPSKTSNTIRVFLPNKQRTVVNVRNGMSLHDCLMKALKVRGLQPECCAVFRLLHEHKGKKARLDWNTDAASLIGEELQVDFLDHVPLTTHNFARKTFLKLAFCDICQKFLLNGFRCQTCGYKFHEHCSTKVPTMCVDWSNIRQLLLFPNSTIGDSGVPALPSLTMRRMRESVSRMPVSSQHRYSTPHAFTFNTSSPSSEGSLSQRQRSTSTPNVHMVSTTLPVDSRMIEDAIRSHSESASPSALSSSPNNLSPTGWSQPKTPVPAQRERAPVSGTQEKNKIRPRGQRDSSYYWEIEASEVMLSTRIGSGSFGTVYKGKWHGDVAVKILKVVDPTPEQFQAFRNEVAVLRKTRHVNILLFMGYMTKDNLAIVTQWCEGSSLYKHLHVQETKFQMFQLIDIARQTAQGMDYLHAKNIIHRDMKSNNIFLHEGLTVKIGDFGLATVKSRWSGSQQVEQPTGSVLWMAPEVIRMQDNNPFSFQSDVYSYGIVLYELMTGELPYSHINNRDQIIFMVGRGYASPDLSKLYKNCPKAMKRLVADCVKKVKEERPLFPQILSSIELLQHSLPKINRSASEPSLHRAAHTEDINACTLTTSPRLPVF

[2] = read-out: LC50 (the source's name)

COc1cc2cc(Oc3ccc(NC(=O)Nc4ccc(Cl)c(Cl)c4)cc3)c(C)nc2cc1OC
GI50 (CCRF-CEM): 2.38 µM | TGI (CCRF-CEM): 14 µM | CC50 (CCRF-CEM; [2]): > 100 µM | GI50 (K562): 3.32 µM | LC50 (concentration killing 50% of cells) (K562): > 100 µM | TGI (K562): > 100 µM | GI50 (MOLT-4): 3.02 µM | LC50 (MOLT-4): > 100 µM | TGI (MOLT-4): 22.8 µM | GI50 (RPMI-8226): 1.62 µM | LC50 (lethal concentration, 50% cell kill) (RPMI-8226): > 100 µM | TGI (RPMI-8226): 5.73 µM | GI50 (SR): 3.1 µM | TGI (SR): 10.3 µM | CC50 (SR; [2]): > 100 µM | GI50 (A549): 1.64 µM | TGI (A549): 7.61 µM | CC50 (A549; [2]): 28.3 µM | GI50 (HOP-62): 3.55 µM | TGI (HOP-62): 11.9 µM | CC50 (HOP-62; [2]): 34.4 µM | GI50 (HOP-92): 2.04 µM | LC50 (HOP-92): 14.2 µM | TGI (HOP-92): 4.88 µM | GI50 (NCI-H226): 3.12 µM | TGI (NCI-H226): 8.68 µM | CC50 (NCI-H226; [2]): 35.8 µM | GI50 (NCI-H23): 3.36 µM | TGI (NCI-H23): 15.9 µM | CC50 (NCI-H23; [2]): 76.3 µM | GI50 (NCI-H322M): 8.66 µM | TGI (NCI-H322M): 60.3 µM | CC50 (NCI-H322M; [2]): > 100 µM | GI50 (NCI-H522): 1.74 µM | TGI (NCI-H522): 8.43 µM | CC50 (NCI-H522; [2]): 59.5 µM | GI50 (HCT-116): 2.26 µM | LC50 (50% lethal concentration) (HCT-116): 32.6 µM | TGI (HCT-116): 10.5 µM | GI50 (HCT-15): 3.56 µM | LC50 (lethal concentration, 50% net cell kill) (HCT-15): > 100 µM | TGI (HCT-15): > 100 µM | GI50 (SF-268): 8.23 µM | LC50 (50% lethal concentration) (SF-268): > 100 µM | TGI (SF-268): > 100 µM | GI50 (SNB-75): 2.33 µM | TGI (SNB-75): 8.28 µM | CC50 (SNB-75; [2]): 66.1 µM | GI50 (Malme-3M): 3.02 µM | TGI (Malme-3M): 7.72 µM | CC50 (Malme-3M; [2]): 26.7 µM | GI50 (MDA-MB-435): 3.09 µM | TGI (MDA-MB-435): 16.8 µM | CC50 (MDA-MB-435; [2]): > 100 µM | GI50 (SK-MEL-2): 3 µM | TGI (SK-MEL-2): 6.55 µM | CC50 (SK-MEL-2; [2]): 20.6 µM | GI50 (SK-MEL-28): 3.77 µM | TGI (SK-MEL-28): 14.7 µM | CC50 (SK-MEL-28; [2]): 51.2 µM | GI50 (SK-MEL-5): 2.58 µM | TGI (SK-MEL-5): 8.09 µM | CC50 (SK-MEL-5; [2]): 30.8 µM | GI50 (UACC-62): 3.33 µM | TGI (UACC-62): 19.2 µM | CC50 (UACC-62; [2]): 71.2 µM | GI50 (OVCAR-5): 10.1 µM | TGI (OVCAR-5): 34.3 µM | CC50 (OVCAR-5; [2]): > 100 µM | GI50 (OVCAR-8): 3.54 µM | TGI (OVCAR-8): 12.9 µM | CC50 (OVCAR-8; [2]): 36 µM | GI50 (NCI/ADR-RES): 2.6 µM | TGI (NCI/ADR-RES): 16.9 µM | CC50 (NCI/ADR-RES; [2]): > 100 µM | GI50 (SK-OV-3): 7.56 µM | TGI (SK-OV-3): 26.4 µM | CC50 (SK-OV-3; [2]): 84.8 µM | GI50 (ACHN): 3 µM | TGI (ACHN): 12.1 µM | CC50 (ACHN; [2]): 69.1 µM | GI50 (RXF 393): 4.28 µM | TGI (RXF 393): 16.7 µM | CC50 (RXF 393; [2]): 65.7 µM | GI50 (SN12C): 3.39 µM | TGI (SN12C): 20.5 µM | CC50 (SN12C; [2]): > 100 µM | GI50 (MCF7): 2.89 µM | TGI (MCF7): 13.8 µM | CC50 (MCF7; [2]): > 100 µM | GI50 (BT-549): 2.4 µM | TGI (BT-549): 11.7 µM | CC50 (BT-549; [2]): 51.6 µM | inhibition [1]: 97.8%
